From ChEMBL document CHEMBL1201862, “PubChem BioAssay data set” (2004)
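Cultured in 96-well plates, cells were exposed to test compound for 48 hours across five concentrations. GI50 = concentration required for 50% inhibition of growth.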 Active and inactive are the calls of the source. Rule as the data show it: active = GI50 up to about 1.1 µM and inactive = higher.

Legend:
Assay in all cases: DTP human tumour cell line panel, 48 h
HCC 2998 = tested on: HCC 2998
MCF7 = tested on: MCF7
MOLT-4 = tested on: MOLT-4
UACC-257 = tested on: UACC-257
SF-295 = tested on: SF-295
PC-3 = tested on: PC-3
TK-10 = tested on: TK-10
UACC-62 = tested on: UACC-62
HL-60 = tested on: HL-60
UO-31 = tested on: UO-31
NCI-H522 = tested on: NCI-H522
SK-OV-3 = tested on: SK-OV-3
OVCAR-5 = tested on: OVCAR-5
SK-MEL-2 = tested on: SK-MEL-2
Hs-578T = tested on: Hs-578T
NCI/ADR-RES = tested on: NCI/ADR-RES
SNB-75 = tested on: SNB-75
HOP-62 = tested on: HOP-62
SF-268 = tested on: SF-268
RXF 393 = tested on: RXF 393
RPMI-8226 = tested on: RPMI-8226
ACHN = tested on: ACHN
OVCAR-8 = tested on: OVCAR-8
NCI-H460 = tested on: NCI-H460
T47D = tested on: T47D
KM12 = tested on: KM12
NCI-H226 = tested on: NCI-H226
MDA-MB-435 = tested on: MDA-MB-435
SR = tested on: SR
U-251 = tested on: U-251
SW-620 = tested on: SW-620
A549 = tested on: A549
Malme-3M = tested on: Malme-3M
OVCAR-3 = tested on: OVCAR-3
HCT-15 = tested on: HCT-15
SK-MEL-5 = tested on: SK-MEL-5
MDA-MB-231 = tested on: MDA-MB-231
NCI-H23 = tested on: NCI-H23
A498 = tested on: A498
SNB-19 = tested on: SNB-19
K562 = tested on: K562
BT-549 = tested on: BT-549
EKVX = tested on: EKVX
DU-145 = tested on: DU-145
LOX IMVI = tested on: LOX IMVI
SN12C = tested on: SN12C
COLO 205 = tested on: COLO 205
HCT-116 = tested on: HCT-116
HT-29 = tested on: HT-29
MDA-N = tested on: MDA-N
M14 = tested on: M14
CCRF-CEM = tested on: CCRF-CEM
SK-MEL-28 = tested on: SK-MEL-28
IGROV-1 = tested on: IGROV-1
OVCAR-4 = tested on: OVCAR-4
786-0 = tested on: 786-0

Measured: GI50

O=C(O)c1c(-c2ccccc2)c(=O)[nH]c2ccccc12
inactive: HCC 2998 > 100 µM | MCF7 > 100 µM | MOLT-4 > 100 µM | UACC-257 > 100 µM | SF-295 > 100 µM | PC-3 > 100 µM | TK-10 > 100 µM | UACC-62 > 100 µM | HL-60 > 100 µM | UO-31 > 100 µM | NCI-H522 > 100 µM | SK-OV-3 > 100 µM | OVCAR-5 > 100 µM | SK-MEL-2 > 100 µM | Hs-578T > 100 µM | NCI/ADR-RES > 100 µM | SNB-75 > 100 µM | HOP-62 > 100 µM | SF-268 > 100 µM | RXF 393 > 100 µM | RPMI-8226 > 100 µM | ACHN > 100 µM | OVCAR-8 > 100 µM | NCI-H460 > 100 µM | T47D > 100 µM | KM12 > 100 µM | NCI-H226 > 100 µM | MDA-MB-435 > 100 µM | SR > 100 µM | U-251 > 100 µM | SW-620 > 100 µM | A549 > 100 µM | Malme-3M > 100 µM | OVCAR-3 > 100 µM | SK-MEL-5 > 100 µM | MDA-MB-231 > 100 µM | NCI-H23 > 100 µM | A498 > 100 µM | SNB-19 > 100 µM | K562 > 100 µM | BT-549 > 100 µM | EKVX > 100 µM | DU-145 > 100 µM | LOX IMVI > 100 µM | SN12C > 100 µM | COLO 205 > 100 µM | HCT-116 > 100 µM | HT-29 > 100 µM | MDA-N > 100 µM | M14 > 100 µM | CCRF-CEM > 100 µM | SK-MEL-28 > 100 µM | IGROV-1 > 100 µM | OVCAR-4 > 100 µM | 786-0 > 100 µM
> 100 µM: HCT-15
